Measurements from BigSolDB 2.1.

O=C(O)/C=C/c1cccc(O)c1
solubility (mole fraction)
Conditions	in ethanol	in ethyl acetate	in isobutanol	in isopropanol	in methanol	in methyl acetate	in n-butanol	in n-propanol	in n-propyl acetate
293.15 K	0.0594	0.0177	0.0317	0.0611	0.0516	0.0189	0.0474	0.0493	0.0155
298.15 K	0.0632	0.0201	0.0351	0.0662	0.0557	0.0212	0.0513	0.0533	0.0184
303.15 K	0.0687	0.0228	0.0397	0.0724	0.0611	0.0239	0.0566	0.0585	0.0212
308.15 K	0.0742	0.0256	0.0449	0.0794	0.0669	0.0276	0.0617	0.064	0.0236
313.15 K	0.0802	0.0294	0.0502	0.0859	0.0731	0.0315	0.0677	0.0701	0.0269
318.15 K	0.087	0.0329	0.0561	0.0933	0.0801	0.0358	0.0741	0.0766	0.0302
323.15 K	0.0949	0.0377	0.0628	0.101	0.0887	0.0402	0.0806	0.0842	0.035
328.15 K	0.103	0.0438	0.0706	0.109	0.0995	0.0458	0.0887	0.093	0.041
333.15 K	0.114	0.0489	0.0802	0.12	0.113	–	0.0989	0.104	0.0471
